As a reminder, the IC50 is the concentration that inhibits the measured activity by half. One may read the EC50 as the concentration giving half of the maximal effect. In general, inhibition refers to the percentage by which the read-out fell short of the control. Low readings indicate a response near the control, high ones a response far below the control. For orientation: Cmax means the maximum level reached in the sampled fluid or tissue.

These results are taken from ChEMBL document CHEMBL4602732, “Optimizing Pyrazolopyrimidine Inhibitors of Calcium Dependent Protein Kinase 1 for Treatment of Acute and Chronic Toxoplasmosis” (J Med Chem, 2020).

The structures appear in SMILES notation.

Data set [1] has as its target Proto-oncogene tyrosine-protein kinase Src (Homo sapiens, UniProt P12931). In words: Inhibition of human Src expressed in Escherichia coli BL21 using Abltide peptide as substrate incubated for 20 to 40 mins by ELISA. In general terms: In an ELISA, binding on a coated surface is turned into a signal by an enzyme label.
Data set [2] in a line: Inhibition of Toxoplasma gondii full-length C-terminal His-tagged CDPK1 G128M mutant expressed in Escherichia coli BL21(DE3)V2RpAcYc-LIC+LamP using syntide-2 peptide as substrate incubated for 20 to 40 mins by ELISA.
A short description of data set [3]: Cytotoxicity against MDCK cells assessed as cell growth at 20 uM measured after 72 hrs by cellTiter 96 AQueous non-radioactive cell proliferation assay relative to control. The format is cell-based, Canis lupus familiaris. The conditions noted are these: dog, read-out: Activity.
The target in a further data set is T1, Cytochrome P450 1A2 (Homo sapiens, UniProt P05177).
T1 sequence (P05177 whole entry): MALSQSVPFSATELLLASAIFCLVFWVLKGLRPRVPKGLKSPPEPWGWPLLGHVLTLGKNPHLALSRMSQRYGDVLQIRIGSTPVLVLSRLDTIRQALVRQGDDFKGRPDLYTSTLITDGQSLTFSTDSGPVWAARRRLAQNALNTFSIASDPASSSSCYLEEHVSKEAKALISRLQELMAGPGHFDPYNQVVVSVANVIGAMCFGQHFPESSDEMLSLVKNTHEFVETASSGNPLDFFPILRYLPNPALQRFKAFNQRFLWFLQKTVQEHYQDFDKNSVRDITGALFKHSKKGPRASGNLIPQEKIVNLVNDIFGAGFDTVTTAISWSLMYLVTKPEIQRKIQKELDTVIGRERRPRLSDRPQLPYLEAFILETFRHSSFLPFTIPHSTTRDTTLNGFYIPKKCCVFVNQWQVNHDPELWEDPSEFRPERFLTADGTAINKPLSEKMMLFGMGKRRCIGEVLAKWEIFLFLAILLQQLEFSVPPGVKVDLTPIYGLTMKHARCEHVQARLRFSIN
In words: Inhibition of CYP1A2 in human liver microsomes using phenacetin as substrate measured after 10 mins by LC-MS/MS analysis. The class given is ADME. On the technique in general: Liver microsomes are a subcellular fraction often used to study metabolism.

Data set [4] is described as follows: Inhibition of Toxoplasma gondii full-length wild-type C-terminal His-tagged CDPK1 expressed in Escherichia coli BL21(DE3)V2RpAcYc-LIC+LamP using syntide-2 peptide as substrate incubated for 20 to 40 mins by ELISA.
The nature of data set [5]: Clearance in human hepatocytes assessed per million cells at 1 uM by LC-MS/MS analysis. The class given is ADME, cell-based, Hepatocyte.
The nature of data set [6]: Cytotoxicity against human HepG2 cells assessed as cell growth at 20 uM measured after 72 hrs by cellTiter 96 AQueous non-radioactive cell proliferation assay relative to control. The class given is cell-based. Conditions: read-out: Activity.
The nature of data set [7]: Cytotoxicity against human CMEC/D3 cells assessed as cell growth at 20 uM measured after 72 hrs by cellTiter 96 AQueous non-radioactive cell proliferation assay relative to control. The class given is cell-based, hCMEC/D3. The conditions noted are these: read-out: Activity.
Data set [8] in a line: Cytotoxicity against human Caco2 cells assessed as cell growth at 20 uM measured after 72 hrs by cellTiter 96 AQueous non-radioactive cell proliferation assay relative to control. Conditions: read-out: Activity. The class given is cell-based, Caco-2.
Data set [9] in a line: Cytotoxicity against human SH-SY5Y cells assessed as cell growth at 20 uM measured after 72 hrs by cellTiter 96 AQueous non-radioactive cell proliferation assay relative to control. The class given is cell-based. The conditions noted are these: read-out: Activity.
A further data set addresses LCK (Homo sapiens, UniProt P06239). In words: Inhibition of wild-type human partial length LCK (R207 to P509 residues) expressed in bacterial expression system at 10 uM by Kinomescan method relative to control.
Data set [10] is described as follows: Genotoxicity in Salmonella typhimurium TA98 at 0.004 to 5 mg/ml measured after 90 mins in absence of rat S9 fraction by mini-Ames test. The class given is toxicity. Conditions: salmonella enterica subsp. enterica serovar typhimurium.
The next data set concerns CHO-K1. The data set is described as follows: Genotoxicity in CHOK1 cells measured after 3 hrs in presence of Sprague-Dawley rat liver S9 fraction by Hoechst/calcein-AM staining based micronucleus test. The format is toxicity, cell-based, Cricetulus griseus. Conditions: chinese hamster, s9, 3 h.
The nature of data set [11]: Cmax in CD1 mouse at 3 mg/kg, iv or 10 mg/kg, po administered via gavage by LC-MS/MS analysis. The class given is ADME, organism-based. Conditions: in vivo.
A short description of data set [12]: Toxicity in CD1 mouse assessed as adverse effect at 600 mg/kg measured for 7 days. The format is organism-based. The conditions noted are these: in vivo, 168 h.

Chain of Proto-oncogene tyrosine-protein kinase Src (P12931 2-536 limits assumed): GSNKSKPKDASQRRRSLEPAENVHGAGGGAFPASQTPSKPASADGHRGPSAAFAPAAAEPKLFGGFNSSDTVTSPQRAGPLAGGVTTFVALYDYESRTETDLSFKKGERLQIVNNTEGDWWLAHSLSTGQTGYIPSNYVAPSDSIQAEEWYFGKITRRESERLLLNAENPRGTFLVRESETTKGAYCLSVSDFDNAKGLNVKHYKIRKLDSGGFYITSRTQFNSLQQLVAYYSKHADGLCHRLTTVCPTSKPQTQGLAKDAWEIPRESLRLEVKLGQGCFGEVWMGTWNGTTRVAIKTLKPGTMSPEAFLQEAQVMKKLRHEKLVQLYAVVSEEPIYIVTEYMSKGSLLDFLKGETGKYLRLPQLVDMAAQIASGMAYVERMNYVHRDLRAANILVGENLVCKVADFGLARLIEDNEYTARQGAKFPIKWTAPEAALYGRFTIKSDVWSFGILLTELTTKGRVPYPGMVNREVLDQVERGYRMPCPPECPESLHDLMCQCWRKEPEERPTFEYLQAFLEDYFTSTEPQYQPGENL
Chain of LCK (P06239 whole entry, the tested form may be a part): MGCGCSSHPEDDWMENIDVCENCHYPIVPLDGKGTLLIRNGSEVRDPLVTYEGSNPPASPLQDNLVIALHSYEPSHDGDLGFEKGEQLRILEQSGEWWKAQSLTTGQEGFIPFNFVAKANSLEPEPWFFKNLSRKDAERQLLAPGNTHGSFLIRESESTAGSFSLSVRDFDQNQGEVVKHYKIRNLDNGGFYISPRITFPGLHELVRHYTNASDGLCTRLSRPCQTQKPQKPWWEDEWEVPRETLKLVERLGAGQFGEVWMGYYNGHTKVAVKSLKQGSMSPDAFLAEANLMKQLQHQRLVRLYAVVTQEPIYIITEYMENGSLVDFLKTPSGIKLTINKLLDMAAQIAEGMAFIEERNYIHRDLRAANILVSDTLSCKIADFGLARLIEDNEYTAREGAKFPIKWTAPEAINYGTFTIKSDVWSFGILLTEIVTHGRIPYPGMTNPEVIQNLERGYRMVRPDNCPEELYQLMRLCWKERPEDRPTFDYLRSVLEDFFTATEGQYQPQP

For `Nc1ncnc2c1c(Oc1cc(C(F)(F)F)ccn1)nn2C1CC1`, the IC50 was over 20 µM in data set [1], over 20 µM in data set [2] and 0.016 to 0.0165 µM in data set [4]. In addition, the viability at 72 h, 20 µM in [3] stood at 97.8%; in data set [6] it was 104%; in data set [7], 132%; in data set [8], 93.3%; in data set [9], 103%. On Cytochrome P450 1A2, this compound came in with an EC50 of 0.46 µM. This compound came in with a CLH in data set [5] of under 6.4 µL/min/1e6 cells. The inhibition at 10 µM on LCK amounted to 55%. Also, the Activity result was “Non-Toxic” in data set [10], over 1000 µM in the data set with CHO-K1 and “Non-Toxic” in [12]. This compound came in with a Cmax in [11] of 2.067 µg/mL.

On to `N#Cc1ccnc(Oc2nn([C@H]3C[C@H](F)C3)c3ncnc(N)c23)c1`, for which the IC50 in [1] was over 20 µM; in [2], over 20 µM; in data set [4], 0.0149 to 0.015 µM. Also, the viability at 72 h, 20 µM in [3] is 79.4%; in data set [6], 101%; in [7], 135%; in data set [8], 95.5%; in [9], 103%. The same compound displayed an EC50 on Cytochrome P450 1A2 of 20.8 µM. In addition, the CLH in data set [5] was 10 µL/min/1e6 cells. On LCK, this compound displayed an inhibition at 10 µM of 74%. The Activity result was “Non-Toxic” in data set [10], over 100 µM in the data set with CHO-K1 and “Non-Toxic” in data set [12]. The same compound returned a Cmax in [11] of 1.503 µg/mL.
